Like-named read-outs stand apart in the source and are kept apart here.
Legend:
[1] = biological target: kOR (OPRK1) (Homo sapiens (Human), UniProt P41145); experiment: KOR β-Arrestin antagonist assay (Tango OPRK1-bla U2OS cells); type: cell-based
Text: KOR β-Arrestin Agonist and Antagonist assays were preformed using the Tango™ OPRK1-bla U2OS cells from Invitrogen and purchased from ThermoFisher, catalog number K1576.

[2] = biological target: human dOR (Homo sapiens (Human), UniProt P41143); experiment: cell-based; settings: dOR cAMP Agonist Assay EC50, CHO Tag-lite human dOR stable cell line; forskolin
Sequence of human dOR (P41143 whole entry): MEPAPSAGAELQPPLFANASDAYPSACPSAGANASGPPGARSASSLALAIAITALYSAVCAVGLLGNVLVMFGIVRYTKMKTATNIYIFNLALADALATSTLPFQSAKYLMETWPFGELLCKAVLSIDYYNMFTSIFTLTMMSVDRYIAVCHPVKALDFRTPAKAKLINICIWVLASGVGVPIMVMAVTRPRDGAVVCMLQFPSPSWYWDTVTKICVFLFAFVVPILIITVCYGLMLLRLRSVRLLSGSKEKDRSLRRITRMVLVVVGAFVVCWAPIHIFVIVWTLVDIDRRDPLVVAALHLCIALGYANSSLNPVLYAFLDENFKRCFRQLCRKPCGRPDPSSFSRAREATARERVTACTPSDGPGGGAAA

[3] = biological target: human mOR (Homo sapiens (Human), UniProt P35372); experiment: cell-based
Sequence of human mOR (P35372 whole entry): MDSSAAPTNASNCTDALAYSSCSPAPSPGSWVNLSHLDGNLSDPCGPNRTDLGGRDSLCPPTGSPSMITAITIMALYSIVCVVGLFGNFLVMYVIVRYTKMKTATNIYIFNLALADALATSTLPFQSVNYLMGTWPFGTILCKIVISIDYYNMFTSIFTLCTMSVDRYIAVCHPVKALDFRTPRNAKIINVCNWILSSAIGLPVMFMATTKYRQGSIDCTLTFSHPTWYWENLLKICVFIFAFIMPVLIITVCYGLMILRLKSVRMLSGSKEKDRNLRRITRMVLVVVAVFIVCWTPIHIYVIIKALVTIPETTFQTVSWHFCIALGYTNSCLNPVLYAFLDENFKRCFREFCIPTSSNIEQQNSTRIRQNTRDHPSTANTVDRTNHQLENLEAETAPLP

[4] = CHO Tag-lite human mOR stable cell line, forskolin 4 μM and DAMGO at EC90, read-out: mOR cAMP Antagonist Assay IC50

Sequence of kOR (OPRK1) (P41145 whole entry): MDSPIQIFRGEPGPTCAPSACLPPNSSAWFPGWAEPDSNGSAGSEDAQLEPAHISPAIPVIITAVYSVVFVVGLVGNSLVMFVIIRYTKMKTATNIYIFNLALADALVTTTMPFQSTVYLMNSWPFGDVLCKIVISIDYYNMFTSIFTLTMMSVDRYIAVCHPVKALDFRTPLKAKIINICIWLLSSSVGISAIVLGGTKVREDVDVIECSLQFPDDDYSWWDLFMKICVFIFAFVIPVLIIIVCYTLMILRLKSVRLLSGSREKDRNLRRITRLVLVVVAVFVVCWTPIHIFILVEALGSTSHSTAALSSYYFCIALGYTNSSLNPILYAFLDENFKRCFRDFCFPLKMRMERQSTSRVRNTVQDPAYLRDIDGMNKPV

SMILES	IC50 [1]	EC50 [2]	IC50 [3, 4]	IC50 [3]
Cc1cc(C(N)=O)cc(C)c1C[C@@H](CNC(=O)C[C@H](c1ccccc1)C1(C(F)(F)F)CC1)N(C)C [Compound 8, 4-((S)-2-(dimethylamino)-3-((R)-3-phenyl-3-(1-(trifluoromethyl)cyclopropyl)propanamido)propyl)-3,5-dimethylbenzamide]	< 300 nM	> 3000 nM	> 3000 nM	
Cc1cc(C(N)=O)cc(C)c1C[C@@H](CNC(=O)C[C@@H](c1ccccc1)C(C)C)N(C)C [Compound 10, 4-((S)-2-(dimethylamino)-3-((R)-4-methyl-3-phenylpentanamido)propyl)-3,5-dimethylbenzamide]	< 300 nM	> 3000 nM		< 300 nM
Cc1cc(C(N)=O)cc(C)c1C[C@@H](CNC(=O)C[C@@H](c1ccccc1)C1CC1)N(C)C [Compound 11, 4-((S)-3-((R)-3-cyclopropyl-3-phenylpropanamido)-2-(dimethylamino)propyl)-3,5-dimethylbenzamide]	< 300 nM	> 3000 nM		< 300 nM
Cc1cc(C(N)=O)cc(C)c1C[C@@H](CNC(=O)C[C@@H](CC(C)C)c1ccccc1)N(C)C [Compound 12, 4-[(2S)-2-(dimethylamino)-3-[(3R)-5-methyl-3-phenylhexanamido]propyl]-3,5-dimethylbenzamide]	< 300 nM	> 3000 nM		< 300 nM
Cc1ccc([C@@H](CC(=O)NC[C@H](Cc2ccc(C(N)=O)c(F)c2Cl)N(C)C)C2(C(F)(F)F)CC2)cn1 [Compound 20, 3-chloro-4-((S)-2-(dimethylamino)-3-((R)-3-(6-methylpyridin-3-yl)-3-(1-(trifluoromethyl)cyclopropyl)propanamido)propyl)-2-fluorobenzamide]	< 300 nM	300 to 3000 nM	< 300 nM	
Cc1ncc([C@@H](CC(=O)NC[C@H](Cc2ccc(C(N)=O)c(F)c2Cl)N(C)C)C2(C(F)(F)F)CC2)cn1 [Compound 21, 3-chloro-4-[(2S)-2-(dimethylamino)-3-[(3R)-3-(2-methylpyrimidin-5-yl)-3-[1-(trifluoromethyl)cyclopropyl]propanamido]propyl]-2-fluorobenzamide]	< 300 nM	300 to 3000 nM		< 300 nM
CN(C)[C@H](CNC(=O)C[C@H](c1ccccc1)C1(C(F)(F)F)CC1)Cc1ccc(C(N)=O)cc1Cl [Compound 39, 3-chloro-4-[(2S)-2-(dimethylamino)-3-[(3R)-3-phenyl-3-[1-(trifluoromethyl)cyclopropyl]propanamido]propyl]benzamide]	< 300 nM	> 3000 nM		< 300 nM
Cc1ncc([C@@H](CC(=O)NC[C@H](Cc2ccc(C(N)=O)c(F)c2)N(C)C)C2(C(F)(F)F)CC2)cn1 [Compound 68, 4-((S)-2-(dimethylamino)-3-((R)-3-(2-methylpyrimidin-5-yl)-3-(1-(trifluoromethyl)cyclopropyl)propanamido)propyl)-2-fluorobenzamide]	< 300 nM	> 3000 nM		< 300 nM
CN(C)[C@H](CNC(=O)C[C@H](c1ccccc1)C1(C(F)(F)F)CC1)Cc1ccc(C(N)=O)c(F)c1 [Compound 77, 4-((S)-2-(dimethylamino)-3-((R)-3-phenyl-3-(1-(trifluoromethyl)cyclopropyl)propanamido)propyl)-2-fluorobenzamide]	< 300 nM	> 3000 nM		< 300 nM
CN(C)[C@H](CNC(=O)C[C@H](c1ccc(Cl)c(Cl)c1)C1(C(F)(F)F)CC1)Cc1ccc(C(N)=O)cc1 [Compound 80, 4-((S)-3-((R)-3-(3,4-dichlorophenyl)-3-(1-(trifluoromethyl)cyclopropyl)propanamido)-2-(dimethylamino)propyl)benzamide]	< 300 nM	< 300 nM		< 300 nM
CN(C)[C@H](CNC(=O)C[C@@H](c1ccccc1)C1(C(F)(F)F)CC1)Cc1ccc(C(N)=O)cc1 [Compound 88, 4-[(2S)-2-(dimethylamino)-3-[(3S)-3-phenyl-3-[1-(trifluoromethyl)cyclopropyl]propanamido]propyl]benzamide]	< 300 nM	< 300 nM		< 300 nM
CN(C)[C@H](CNC(=O)C[C@H](c1ccccc1)C1(C(F)(F)F)CC1)Cc1ccc(C(N)=O)cc1 [Compound 89, 4-[(2S)-2-(dimethylamino)-3-[(3R)-3-phenyl-3-[1-(trifluoromethyl)cyclopropyl]propanamido]propyl]benzamide]	< 300 nM	< 300 nM		< 300 nM
CN(C)[C@H](CNC(=O)C[C@H](CC1CCC1)c1ccccc1)Cc1ccc(C(N)=O)cc1 [Compound 90, 4-[(2S)-3-[(3S)-4-cyclobutyl-3-phenylbutanamido]-2-(dimethylamino)propyl]benzamide]	< 300 nM	< 300 nM		< 300 nM
CC(C)C[C@@H](CC(=O)NC[C@H](Cc1ccc(C(N)=O)cc1)N(C)C)c1ccccc1 [Compound 91, 4-[(2S)-2-(dimethylamino)-3-[(3S)-5-methyl-3-phenylhexanamido]propyl]benzamide]	< 300 nM	< 300 nM		< 300 nM
CC(C)C[C@H](CC(=O)NC[C@H](Cc1ccc(C(N)=O)cc1)N(C)C)c1ccccc1 [Compound 96, 4-((S)-2-(dimethylamino)-3-((R)-5-methyl-3-phenylhexanamido)propyl)benzamide]	< 300 nM	< 300 nM		< 300 nM
CN(C)[C@H](CNC(=O)C[C@@H](c1ccccc1)C1CC1)Cc1ccc(C(N)=O)cc1 [Compound 97, 4-((S)-3-((R)-3-cyclopropyl-3-phenylpropanamido)-2-(dimethylamino)propyl)benzamide]	< 300 nM	< 300 nM		< 300 nM
CNC(=O)c1ccc(C[C@@H](CNC(=O)C[C@H](c2cc(F)cc(F)c2)C2(C(F)(F)F)CC2)N(C)C)c(C)c1 [Compound 136, 4-((S)-3-((R)-3-(3,5-difluorophenyl)-3-(1-(trifluoromethyl)cyclopropyl)propanamido)-2-(dimethylamino)propyl)-N,3-dimethylbenzamide]	< 300 nM	300 to 3000 nM		< 300 nM
CNC(=O)c1ccc(C[C@@H](CNC(=O)C[C@H](c2ccc(Cl)cc2)C2(C(F)(F)F)CC2)N(C)C)c(C)c1 [Compound 142, 4-((S)-3-((R)-3-(4-chlorophenyl)-3-(1-(trifluoromethyl)cyclopropyl)propanamido)-2-(dimethylamino)propyl)-N,3-dimethylbenzamide]	< 300 nM	> 3000 nM		< 300 nM
CNC(=O)c1ccc(C[C@@H](CNC(=O)C[C@H](c2ccccc2)C2(C(F)(F)F)CC2)N(C)C)c(C)c1 [Compound 143, 4-((S)-2-(dimethylamino)-3-((R)-3-phenyl-3-(1-(trifluoromethyl)cyclopropyl)propanamido)propyl)-N,3-dimethylbenzamide]	< 300 nM	> 3000 nM		< 300 nM
CN(C)[C@H](CNC(=O)C[C@@H](c1ccccc1)C1CC1)Cc1ccc2[nH]ncc2c1 [Compound 226, (3R)-3-cyclopropyl-N-[(2S)-2-(dimethylamino)-3-(1H-indazol-5-yl)propyl]-3-phenylpropanamide]	< 300 nM	300 to 3000 nM	< 300 nM	

From patent US11634396B2 (priority 2021, dated 2023)
